Experimental data as given in patent US20050120398A1, “Animal model for HCV infection” (Vertex Pharmaceuticals Incorporated, priority 2003, published 2005).
Entries after “also recorded” stand apart in the source; their conditions may differ.

Legend:
[1] = test system: Ad.MT.HCVpro (mutant HCV protease fused with SEAP); assay: HCV protease mouse model: SEAP in serum, mutant HCV protease adenovirus; assay type: in vivo, SCID mice; settings: 300 mg/kg orally twice a day; 10^9.5 IFU/mice Ad.MT.HCVpro; serum 24 hours post-infection
[2] = test system: Wild type HCV protease; assay: Steatosis associated with HCV protease expression, Oil Red O staining of liver sections; assay type: in vivo, SCID mice; settings: 300 mg/kg BID oral for the initial 3 days; 10^11 IFU/mouse; sacrificed at 7 days
Procedure: FIG. 25 depicts that steatosis associated with HCV protease expression can be ameliorated by HCV protease inhibitor VX-950. SCID mice were injected with 10^11 IFU/mouse of replication defective adenovirus expressing Wild type HCV protease or mutant HCV protease or SEAP alone (n=6). One group of mice (n=6) injected with adenovirus expressing wild type HCV protease were treated with 300 mg/kg BID via oral route for the initial 3 days. All the mice were sacrificed at 7 days and liver sections were stained with Oil Red O. A significant accumulation of fat in the livers of mice expressing wild type HCV protease compared to either mutant HCV protease or SEAP alone groups (20× magnification).
1. Cryostat frozen sections of livers stored at −80° C. were tested.
2. The Oil Red O Solution was prepared as follows:
a) Stock Solution Oil Red O: 500 mg Oil red O stain (Sigma O-0625) was dissolved in 100 ml isopropanol at room temperature overnight with stirring. The solution was filtered through a #1 Whatman filter. The solution was stored at room temperature protected from light.
b) Working Oil Red Solution was prepared fresh the day of assay. 40% water was mixed with 60% Oil Red O stock by inversion.
c) The working solution was kept at room temperature for 1 hour before filtering. Particulate material was filtered out using a #1 Whatman filter paper.
3. […]
13. The results were assessed by microscopy.

[3] = test system: Ad.WT.HCVpro; assay: Liver injury in mice infected with adenovirus expressing WT HCV protease; settings: 300 mg/kg orally twice a day for the first three days; 10^11 IFU/mice; sacrificed after 7 days

Compound: CCC[C@H](NC(=O)[C@@H]1[C@H]2CCC[C@H]2CN1C(=O)[C@@H](NC(=O)[C@@H](NC(=O)c1cnccn1)C1CCCCC1)C(C)(C)C)C(=O)C(=O)NC1CC1 [VX-950]
- effect on Mutant HCV protease activity (SEAP in serum) [1]: No effect
- amelioration of steatosis (Oil Red O staining) [2]: effective at ameliorating steatosis; also recorded: ameliorated
- protection from liver injury (gross appearance and H&E liver pathology) [3]: protects mice from Liver injury
